Data set [1] addresses T1, Interstitial collagenase (Homo sapiens, UniProt P03956).
T1 sequence (P03956 whole entry): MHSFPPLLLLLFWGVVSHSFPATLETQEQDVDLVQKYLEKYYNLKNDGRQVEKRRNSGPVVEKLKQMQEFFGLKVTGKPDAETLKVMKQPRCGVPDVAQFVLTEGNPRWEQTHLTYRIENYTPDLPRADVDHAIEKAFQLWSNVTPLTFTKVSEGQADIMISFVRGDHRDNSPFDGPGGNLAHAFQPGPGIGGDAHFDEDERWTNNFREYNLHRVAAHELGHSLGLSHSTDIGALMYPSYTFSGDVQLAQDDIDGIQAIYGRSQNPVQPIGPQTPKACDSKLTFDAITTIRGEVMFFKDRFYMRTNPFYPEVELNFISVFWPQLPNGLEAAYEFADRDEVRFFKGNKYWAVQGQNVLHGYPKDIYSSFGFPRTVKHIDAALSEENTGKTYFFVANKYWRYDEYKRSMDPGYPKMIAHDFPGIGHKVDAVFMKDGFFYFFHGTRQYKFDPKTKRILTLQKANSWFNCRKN
Put plainly: Inhibition of MMP-1 (unknown origin).

Data set [2] addresses T2, 72 kDa type IV collagenase (Homo sapiens, UniProt P08253).
The target in data set [3] is T3, Stromelysin-1 (Homo sapiens, UniProt P08254). Briefly: Inhibition of MMP-3 (unknown origin).
T3 sequence (P08254 whole entry): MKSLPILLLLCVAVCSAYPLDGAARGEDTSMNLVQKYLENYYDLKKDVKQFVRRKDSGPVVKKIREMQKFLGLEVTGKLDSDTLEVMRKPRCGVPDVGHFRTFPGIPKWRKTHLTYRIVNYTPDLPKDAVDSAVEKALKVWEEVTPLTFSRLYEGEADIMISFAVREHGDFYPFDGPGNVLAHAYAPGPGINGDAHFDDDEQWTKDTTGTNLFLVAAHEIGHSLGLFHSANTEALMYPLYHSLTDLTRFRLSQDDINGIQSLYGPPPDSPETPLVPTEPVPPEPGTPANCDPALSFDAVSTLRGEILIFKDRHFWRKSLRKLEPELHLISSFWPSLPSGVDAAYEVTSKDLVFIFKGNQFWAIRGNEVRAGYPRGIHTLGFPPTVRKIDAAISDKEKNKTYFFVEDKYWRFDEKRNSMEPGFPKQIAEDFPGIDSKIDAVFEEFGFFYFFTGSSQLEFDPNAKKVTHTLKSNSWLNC
For data set [4], the target named is T4, Matrilysin (Homo sapiens, UniProt P09237).
T4 sequence (P09237 whole entry): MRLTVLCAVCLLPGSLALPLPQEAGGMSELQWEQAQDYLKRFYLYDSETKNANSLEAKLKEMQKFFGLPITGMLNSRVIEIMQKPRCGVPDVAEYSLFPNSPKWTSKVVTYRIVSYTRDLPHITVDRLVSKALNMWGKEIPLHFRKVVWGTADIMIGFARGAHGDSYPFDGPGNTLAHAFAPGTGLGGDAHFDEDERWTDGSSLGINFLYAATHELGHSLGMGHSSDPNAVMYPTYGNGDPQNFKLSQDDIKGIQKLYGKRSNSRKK
Briefly: Inhibition of MMP-7 (unknown origin).

In data set [5] the target is T5, Neutrophil collagenase (Homo sapiens, UniProt P22894). Briefly: Inhibition of MMP-8 (unknown origin).
T5 sequence (P22894 whole entry): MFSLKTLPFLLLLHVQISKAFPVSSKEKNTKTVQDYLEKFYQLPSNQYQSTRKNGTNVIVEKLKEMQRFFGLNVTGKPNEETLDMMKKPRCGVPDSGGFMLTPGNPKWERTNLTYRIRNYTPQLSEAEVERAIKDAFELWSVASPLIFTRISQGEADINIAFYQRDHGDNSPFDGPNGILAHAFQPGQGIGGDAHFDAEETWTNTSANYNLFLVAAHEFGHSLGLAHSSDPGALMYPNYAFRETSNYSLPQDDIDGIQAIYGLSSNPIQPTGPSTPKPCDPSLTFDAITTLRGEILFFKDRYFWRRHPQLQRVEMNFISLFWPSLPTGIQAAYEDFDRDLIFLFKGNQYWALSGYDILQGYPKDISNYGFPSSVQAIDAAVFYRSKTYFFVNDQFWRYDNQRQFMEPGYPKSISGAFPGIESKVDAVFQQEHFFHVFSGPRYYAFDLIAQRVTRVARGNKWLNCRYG
Data set [6] addresses T6, Collagenase 3 (Homo sapiens, UniProt P45452).
Description: Inhibition of MMP-13 (unknown origin)
In data set [7] the test system is HT-1080. Briefly: Inhibition of cell invasion in human HT-1080 cells for 24 hrs by Calcein AM staining based fluorometric analysis. Format: functional. The following applies: HT-1080, 24 h.
Data set [8] addresses T1, Interstitial collagenase. Briefly: Inhibition of human MMP-1 expressed in Escherichia coli BL21(DE3) using Mca-Pro-Leu-Gly-Leu-Dpa-Ala-Arg-NH2 as substrate preincubated for 30 mins followed by susbstrate addition by photon-counter spectrophotometer analysis.
The target in data set [9] is T2, 72 kDa type IV collagenase. Briefly: Inhibition of human MMP-2 expressed in Escherichia coli BL21(DE3) using Mca-Pro-Leu-Gly-Leu-Dpa-Ala-Arg-NH2 as substrate preincubated for 30 mins followed by susbstrate addition by photon-counter spectrophotometer analysis.
The target of data set [10] is T3, Stromelysin-1. Put plainly: Inhibition of human MMP-3 expressed in Escherichia coli BL21(DE3) using Mca-Pro-Leu-Gly-Leu-Dpa-Ala-Arg-NH2 as substrate preincubated for 30 mins followed by susbstrate addition by photon-counter spectrophotometer analysis.
Data set [11] concerns the target T4, Matrilysin. Put plainly: Inhibition of human MMP-7 expressed in Escherichia coli BL21(DE3) using Mca-Pro-Leu-Gly-Leu-Dpa-Ala-Arg-NH2 as substrate preincubated for 30 mins followed by susbstrate addition by photon-counter spectrophotometer analysis.
The target in data set [12] is T5, Neutrophil collagenase. Put plainly: Inhibition of human MMP-8 expressed in Escherichia coli BL21(DE3) using Mca-Pro-Leu-Gly-Leu-Dpa-Ala-Arg-NH2 as substrate preincubated for 30 mins followed by susbstrate addition by photon-counter spectrophotometer analysis.
Data set [13] concerns the target T7, Matrix metalloproteinase-9 (Homo sapiens, UniProt P14780). Briefly: Inhibition of human MMP-9 expressed in Escherichia coli BL21(DE3) using Mca-Pro-Leu-Gly-Leu-Dpa-Ala-Arg-NH2 as substrate preincubated for 30 mins followed by susbstrate addition by photon-counter spectrophotometer analysis.
In data set [14] the target is Stromelysin-2 (Homo sapiens, UniProt P09238). Put plainly: Inhibition of human MMP-10 expressed in Escherichia coli BL21(DE3) using Mca-Pro-Leu-Gly-Leu-Dpa-Ala-Arg-NH2 as substrate preincubated for 30 mins followed by susbstrate addition by photon-counter spectrophotometer analysis.
Sequence of Stromelysin-2 (P09238 whole entry): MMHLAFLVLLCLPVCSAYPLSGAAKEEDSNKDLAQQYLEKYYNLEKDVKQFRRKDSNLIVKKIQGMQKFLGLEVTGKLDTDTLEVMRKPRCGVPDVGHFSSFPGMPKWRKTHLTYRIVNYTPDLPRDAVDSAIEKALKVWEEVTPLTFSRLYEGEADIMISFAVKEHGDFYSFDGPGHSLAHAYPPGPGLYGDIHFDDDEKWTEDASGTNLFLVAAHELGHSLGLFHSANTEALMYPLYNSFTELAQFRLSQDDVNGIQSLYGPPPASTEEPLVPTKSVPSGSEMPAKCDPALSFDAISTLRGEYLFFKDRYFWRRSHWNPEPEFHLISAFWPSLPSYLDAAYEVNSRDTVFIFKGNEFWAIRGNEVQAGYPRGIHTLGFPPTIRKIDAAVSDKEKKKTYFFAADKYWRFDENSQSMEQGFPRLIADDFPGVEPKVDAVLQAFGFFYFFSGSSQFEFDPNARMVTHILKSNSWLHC
Data set [15] deals with T6, Collagenase 3. Put plainly: Inhibition of human MMP-13 expressed in Escherichia coli BL21(DE3) using Mca-Pro-Leu-Gly-Leu-Dpa-Ala-Arg-NH2 as substrate preincubated for 30 mins followed by susbstrate addition by photon-counter spectrophotometer analysis.
In data set [16] the target is Matrix metalloproteinase-14 (Homo sapiens, UniProt P50281). Put plainly: Inhibition of human MMP-14 expressed in Escherichia coli BL21(DE3) using Mca-Pro-Leu-Gly-Leu-Dpa-Ala-Arg-NH2 as substrate preincubated for 30 mins followed by susbstrate addition by photon-counter spectrophotometer analysis.
Data set [17] in a line: Half life in rat at 3 mg/kg, iv. As to conditions: in vivo. The data set is classed as ADME, organism-based.
Data set [18] in a line: Half life in cynomolgus monkey at 3 mg/kg, iv. The data set is classed as ADME, organism-based, Macaca fascicularis. As to conditions: in vivo.
A short description of data set [19]: Oral bioavailability in rat at 3 mg/kg. The data set is classed as ADME, organism-based. As to conditions: in vivo.
Data set [20] can be described thus: Oral bioavailability in dog at 3 mg/kg. Format: ADME, organism-based, Canis lupus familiaris. The following applies: in vivo.
Data set [21] is described as follows: Oral bioavailability in cynomolgus monkey at 3 mg/kg. Format: ADME, organism-based, Macaca fascicularis. The following applies: in vivo.
Data set [22] in a line: Plasma concentration in rat at 3 mg/kg, iv measured upto 3 hrs. The data set is classed as ADME, organism-based.
Data set [23] is described as follows: Plasma concentration in dog at 3 mg/kg, iv measured upto 3 hrs. The data set is classed as ADME, organism-based, Canis lupus familiaris.
A short description of data set [24]: Plasma concentration in cynomolgus monkey at 3 mg/kg, iv measured upto 3 hrs. The data set is classed as ADME, organism-based, Macaca fascicularis.
A short description of data set [25]: Metabolic stability in rat assessed as clearance at 3 mg/kg, iv. The data set is classed as ADME, organism-based. As to conditions: in vivo.
Data set [26] in a line: Metabolic stability in dog assessed as clearance at 3 mg/kg, iv. The data set is classed as ADME, organism-based, Canis lupus familiaris. The following applies: in vivo.
Data set [27] can be described thus: Metabolic stability in cynomolgus monkey assessed as clearance at 3 mg/kg, iv. As to conditions: in vivo. The data set is classed as ADME, organism-based, Macaca fascicularis.
Data set [28] deals with B16-F10. Put plainly: Antitumor activity in mouse B16-F10 xenografted C57BL mouse lung metastasis model assessed as increase in life span measured per hour at 100 mg/kg, ip bid. Format: functional.
Data set [29] concerns the target T5, Neutrophil collagenase. Put plainly: Inhibition of recombinant human MMP-8 for 3 hrs using colorimetric substrate by ELISA. (In general: An ELISA detects its analyte on a solid surface through an enzyme-linked reagent.)
Data set [30] has as its target T2, 72 kDa type IV collagenase. Briefly: Inhibition of recombinant human MMP-2 using peptide substrate by ELISA.
The target in data set [31] is T7, Matrix metalloproteinase-9. Put plainly: Inhibition of recombinant human MMP-9 using peptide substrate by ELISA.
In data set [32] the target is Macrophage metalloelastase (Homo sapiens, UniProt P39900). Put plainly: Inhibition of recombinant human MMP-12 using peptide substrate by ELISA.
Sequence of Macrophage metalloelastase (P39900 whole entry): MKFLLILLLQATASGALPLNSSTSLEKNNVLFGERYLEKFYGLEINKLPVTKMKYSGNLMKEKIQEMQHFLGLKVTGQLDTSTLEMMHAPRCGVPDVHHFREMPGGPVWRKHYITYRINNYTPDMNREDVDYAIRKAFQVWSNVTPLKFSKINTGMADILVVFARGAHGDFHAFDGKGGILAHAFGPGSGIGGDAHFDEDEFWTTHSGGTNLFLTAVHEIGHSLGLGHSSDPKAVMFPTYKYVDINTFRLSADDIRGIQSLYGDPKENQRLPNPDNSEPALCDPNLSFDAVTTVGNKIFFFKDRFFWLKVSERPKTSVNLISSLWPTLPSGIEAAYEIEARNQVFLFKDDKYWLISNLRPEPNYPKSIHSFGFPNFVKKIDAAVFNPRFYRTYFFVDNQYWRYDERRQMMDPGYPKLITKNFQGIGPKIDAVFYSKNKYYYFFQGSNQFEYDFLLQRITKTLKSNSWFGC
In data set [33] the target is T6, Collagenase 3. Briefly: Inhibition of recombinant human MMP-13 using peptide substrate by ELISA.
A short description of data set [34]: Inhibition of recombinant human TACE using peptide substrate by ELISA.
A short description of data set [35]: Half life in Sprague-Dawley rats at 33 mg/kg, sc. Format: ADME, organism-based. The following applies: rat, in vivo.
Data set [36] is described as follows: AUC in Sprague-Dawley rats at 33 mg/kg, sc. As to conditions: rat, in vivo. The data set is classed as ADME, organism-based. On the set-up: dose 33 mg/kg, route sc.
Data set [37] can be described thus: Clearance in Sprague-Dawley rats at 33 mg/kg, sc. The data set is classed as ADME, organism-based. As to conditions: rat, in vivo.
The nature of data set [38]: Half life in Sprague-Dawley rat at 33 mg/kg, po. The data set is classed as ADME, organism-based. As to conditions: in vivo.
The nature of data set [39]: AUC in Sprague-Dawley rats at 33 mg/kg, po. The data set is classed as ADME, organism-based. On the set-up: dose 33 mg/kg, route po. The following applies: rat, in vivo.

The source of these data is ChEMBL document CHEMBL5113513, “Selective Inhibitors of Medium-Size S1' Pocket Matrix Metalloproteinases: A Stepping Stone of Future Drug Discovery” (J Med Chem, 2022).

Where only a bound is given, the exact number is not on record here.

T2 sequence (P08253 whole entry): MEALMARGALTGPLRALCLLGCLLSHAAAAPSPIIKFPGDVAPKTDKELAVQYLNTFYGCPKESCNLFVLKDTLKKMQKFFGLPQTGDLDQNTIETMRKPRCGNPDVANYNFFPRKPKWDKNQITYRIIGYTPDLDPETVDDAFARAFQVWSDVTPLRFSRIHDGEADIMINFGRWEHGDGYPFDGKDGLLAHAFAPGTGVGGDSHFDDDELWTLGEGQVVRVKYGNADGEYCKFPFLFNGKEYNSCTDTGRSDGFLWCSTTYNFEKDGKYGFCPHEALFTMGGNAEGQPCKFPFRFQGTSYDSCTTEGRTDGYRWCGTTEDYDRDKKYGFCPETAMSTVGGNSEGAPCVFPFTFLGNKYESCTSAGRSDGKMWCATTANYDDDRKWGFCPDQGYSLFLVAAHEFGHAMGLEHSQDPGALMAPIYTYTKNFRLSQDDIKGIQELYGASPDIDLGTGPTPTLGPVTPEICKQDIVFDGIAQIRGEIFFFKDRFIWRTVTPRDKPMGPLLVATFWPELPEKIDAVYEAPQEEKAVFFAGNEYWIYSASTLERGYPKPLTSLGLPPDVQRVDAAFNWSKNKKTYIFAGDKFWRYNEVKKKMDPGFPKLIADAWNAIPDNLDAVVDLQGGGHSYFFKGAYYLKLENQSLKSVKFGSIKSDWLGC
T7 sequence (P14780 whole entry): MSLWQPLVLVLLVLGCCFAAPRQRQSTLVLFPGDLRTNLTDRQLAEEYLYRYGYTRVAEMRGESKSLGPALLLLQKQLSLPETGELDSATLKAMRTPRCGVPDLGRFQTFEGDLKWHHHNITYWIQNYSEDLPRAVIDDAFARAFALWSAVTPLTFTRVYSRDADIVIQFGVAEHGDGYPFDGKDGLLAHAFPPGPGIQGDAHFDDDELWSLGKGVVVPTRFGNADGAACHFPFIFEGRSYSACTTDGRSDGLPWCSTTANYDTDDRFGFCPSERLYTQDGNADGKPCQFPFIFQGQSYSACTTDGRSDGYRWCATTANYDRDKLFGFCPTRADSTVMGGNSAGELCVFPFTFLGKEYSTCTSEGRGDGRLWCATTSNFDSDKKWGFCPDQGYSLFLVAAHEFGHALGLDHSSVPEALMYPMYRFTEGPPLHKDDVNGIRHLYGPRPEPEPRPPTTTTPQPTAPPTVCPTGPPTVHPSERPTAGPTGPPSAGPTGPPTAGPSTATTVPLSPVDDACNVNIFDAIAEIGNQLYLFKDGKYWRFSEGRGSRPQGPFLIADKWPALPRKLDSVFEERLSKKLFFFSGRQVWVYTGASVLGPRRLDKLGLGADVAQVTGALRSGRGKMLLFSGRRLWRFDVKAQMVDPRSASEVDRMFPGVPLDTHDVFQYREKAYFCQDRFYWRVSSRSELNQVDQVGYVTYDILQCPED

As a reminder, the IC50 is the concentration at which inhibition is half-maximal. As for `C[C@H]1c2cccc(O)c2C(=O)C2=C(O)[C@]3(O)C(=O)C(C(N)=O)=C(O)[C@@H](N(C)C)[C@@H]3[C@@H](O)[C@@H]21` [DOXYCYCLINE], the IC50 was greater than 400000 nM in data set [1]; 56000 nM in data set [2]; 32000 nM in data set [3]; 28000 nM in data set [4]; 26000 nM in data set [5]; 20000 nM in data set [6]. In addition, the half-inhibitory concentration (IC50) in data set [7] is 21400 nM.

Regarding `COc1ccccc1Nc1nc(-c2sc(NC(C)=O)nc2C)cs1`, in [7], the IC50 was 1000 nM.

What is called Ki is the equilibrium dissociation constant of an inhibitor or competing ligand from its target. Regarding `NC(=O)[C@H](CCC(=O)O)NC(=O)[C@@H](CCC(=O)O)NC(=O)CCc1cc(-c2ccc(-c3cccc(Cl)c3)cc2)no1`, the inhibition constant Ki was 17900 nM in data set [8]; 76 nM in data set [9]; 62 nM in data set [10]; 1200 nM in data set [11]; 181 nM in data set [12]; 565 nM in data set [13]. Moreover, the figures for the inhibition constant Ki in [14], in data set [15] and in data set [16] were 48 nM, 40 nM and 2060 nM, respectively.

As a reminder, the half-life is how long it takes for the measured level to halve. As usually defined, the bioavailability is dose-corrected exposure relative to a reference, in per cent. What is called clearance is a measure of how efficiently the substance is removed, as volume per time. For `CC1(C)NC(=O)N(C[C@@H](COc2ccc(-c3ccc(OC(F)(F)F)cc3)cc2)N(O)C=O)C1=O`, the half-life in data set [17] was 8 h; in data set [18], 21 h. For the same compound, the bioavailability in data set [19], in data set [20] and in data set [21] was 84% in each case. Moreover, the concentration at 3 h in data set [22], in [23] and in data set [24] was 1500 ng/mL each time. Besides, the results for the clearance in data set [25], in data set [26] and in [27] were 2 mL/min/kg, 1.83 mL/min/kg and 1.13 mL/min/kg, respectively. Also, the Activity in [28] is 46%.

With `O=C(NC1CCC1)P(=O)(O)O` [(CYCLOBUTYLAMINO)CARBONYLPHOSPHONIC ACID], the IC50 in data set [29] came to 4 nM.

A word on the AUC: it is concentration integrated over time. Usually CL/F stands for clearance divided by bioavailability, as obtained after extravascular dosing. As for `O=C(NCCCCCCNS(=O)(=O)c1ccc(Oc2ccccc2)cc1)P(=O)(O)O`, the IC50 in [30] is 4 nM; in data set [31] it was greater than 100 nM; in data set [32], greater than 100 nM; in [33] it was greater than 100 nM; in data set [34], 20 nM. Also, the half-life in data set [35] is 6.6 h; in data set [38], 5.8 h. Moreover, the AUC is 50500 ng·h/mL in data set [36] and 3300 ng·h/mL in data set [39]. The apparent clearance CL/F in data set [37] was 7.1 mL/min/kg.
